Key:
[1] = system: P. falciparum male gametogenesis; experiment: Phenotypic immunofluorescence assay of male gamete formation; format: cell-based, Plasmodium falciparum; conditions: 10 µM, 24 h treatment, 0–20 min post induction
Procedure: In vitro evolution followed by whole-genome analysis is the primary approach currently used for understanding how compounds act in malaria parasites. As it is not currently feasible to generate resistant mutants to compounds that are only active in the gametocyte stage (resistance generation requires extensive rounds of replication in the presence of compound), phenotypic immunofluorescence assays were performed to evaluate compound activity on male gamete formation. Gametocytes treated with 10 µM of each compound were sampled at 0, 2, 3, 4, 6, 8, 10, and 20 min post induction of gamete formation before imaging (Fig. 4). Individual male cells were then extracted from the images and analysed for shape and haploid chromosome number/DNA content to quantitatively measure the progression of DNA replication (n = 198–668 cells) (Fig. 5a).
Day 14 gametocyte culture was divided into 4 ml aliquots and treated either with DMSO or 10 µM test compound. After 24 h, 500 µl aliquots of the non-activated gametocytes were fixed in an equal volume of 8% paraformaldehyde (PFA) warmed to 37 °C to generate Time = 0 min (t = 0) samples. Gamete formation was induced in the remainder of the cultures by cooling to RT and addition of 500 µl ookinete medium. At t = 2, 3, 4, 6, 8, 10, and 20 min 500 µl of culture was removed and immediately fixed in equal volume of 8% PFA at room temperature for 15 min. Fixed cells were diluted in PBS and allowed to settle onto poly-L-lysine-coated glass coverslips overnight. The next day, cells were washed in PBS, permeabilized in 0.1% Triton X-100 and blocked in PBS + 10% FBS. Cells were stained with mouse anti-alpha tubulin (Sigma) clone DM1A (1:500 dilution) and rabbit anti-Glycophorin A (Abcam) clone EPR8200 (1:1000 dilution). Staining was visualised with anti-mouse […] and anti-rabbit Alexa555 (Thermo-Fisher) both at 1:1000 dilution. Coverslips were mounted onto glass slides with VectaShield mountant (Vector Laboratories) containing 4′,6-diamidino-2-phenylindole (DAPI) to visualise cellular DNA. Cells were imaged at random (n = 195–668 cells per test compound) using a Nikon Ti-E widefield microscope using a × 100 objective lens and taken in 0.2 µm slice z-stack images to capture the whole cell. All images were converted to maximum intensity projections in NIS Elements v4.20 and all further image processing performed in ICY. Individual cells were manually selected and automatically extracted from each image using the Active Contours plugin gated to the tubulin staining. Using the ROI Statistics plugin, the following parameters were calculated for each cell and exported to MS Excel: Cell area, Cell roundness, Cell elongation, and Average intensity of blue channel (DNA). […] Outlier cells from the curve were all exflagellating (Supplementary Fig. 6). These two parameters were combined as a ratio of roundness:elongation to produce the parameter Cell shape. Cellular DNA content was estimated by multiplying the average pixel intensity of the blue channel (after subtracting the background intensity of an empty area in the same parent image) with the total cell area.

[2] = system: P. falciparum female gamete formation; experiment: Pf DGFA add-in format, female readout; format: cell-based; conditions: Plasmodium falciparum; 0h preincubation/add-in
Procedure: (§1) In profiling mode, the Pf DGFA was performed in 96-well plates[23] in wash-out and add-in formats to aid manual manipulation steps. In the wash-out format, gametocytes were incubated for 24 h with test compounds in round-bottomed 96 well plates and then culture medium replaced three times over 6 h, to remove as much of the compound as possible from the well. […] In add-in format, gametocytes were added directly to flat-bottomed 96-well plates containing test compounds, ookinete medium and anti-Pfs25.

HepG2 human cells = system: HepG2 human cells; parameters: method as in http://dx.doi.org/10.6019/CHEMBL3507680; conditions: ref http://dx.doi.org/10.6019/CHEMBL3507680; cited from earlier work
[3] = system: P. falciparum stage V male gametocytes (male gamete formation); experiment: P. falciparum dual gamete formation assay (Pf DGFA), male readout (exflagellation), 48 h carry-over format; format: cell-based, Plasmodium falciparum NF54; conditions: Plasmodium falciparum, 24h preincubation/carry-over
[4] = system: Stage IV–V 3D7 gametocytes; experiment: Gametocytocidal ATP-based bioluminescence assay (GC-ATP); format: cell-based, Plasmodium falciparum 3D7; conditions: for IC50: Plasmodium falciparum, 3D7, 48h incubation, read-out: Pf late stage gametocyte (ATP depletion) IC50
Procedure: The metabolic viability of late stage gametocytes was determined using a gametocyte ATP bioluminescence assay. Stage IV–V 3D7 gametocyte cultures were double-purified by density gradient sedimentation over NycoPrep® followed by magnetic isolation. Then, parasites (50 µl per well containing 12,500 gametocytes) were added to compound pre-dispensed 384-well plates (781091, Greiner) and incubated at 37 °C for 48 h under 5% CO2/3% O2/92% N2. BacTiter-Glo® kit (G8231, Promega) was used to determine the ATP levels of viable parasites according to manufacturer’s instructions. After reagent addition (50 µl per well), luminescence of the plates was measured using a microplate reader (HTS counter Victor, Wallac).

NF54 stage V gametocytes = experiment: Gametocytocidal MitoTracker-based viability assay (SaLSSA); format: cell-based, Plasmodium falciparum NF54; conditions: for IC50: Plasmodium falciparum, NF54, 72h incubation, read-out: Pf Stage V GCT (mitotracker assay) IC50
Procedure: As another independent assessment of the metabolic viability of compound-treated stage V gametocytes, the Saponin-lysis Sexual Stage Assay (SaLSSA) was employed. A volume of 100 nl of test compounds were pre-dispensed in 384-well plates (781091-2B, Greiner) in 12-point dose response (25 µM to 1.41 × 10^−4 µM), prior to the addition of synchronous NF54 stage V gametocytes (40 µl at 0.70% gametocytaemia). Assay plates were then incubated for 72 h in a low oxygen environment (92% N2, 5% CO2, 3%O2) before a 10 µl MitoTracker Red CMXRos (2.5 µM) and saponin solution (0.13%w/v) was added. Plates were returned to 37 °C for 1 h to allow for complete red blood cell lysis, after which viable gametocytes were detected using an Operetta high-content imaging system. Analysis was performed using the Harmony package software, with potency calculated relative to puromycin (positive control) and DMSO (negative control).

[5] = system: P. falciparum male gamete formation; experiment: Pf DGFA add-in format, male readout; format: cell-based, Plasmodium falciparum; conditions: Plasmodium falciparum; 0h preincubation/add-in
Procedure: as §1

[6] = system: P. falciparum female gametocytes; experiment: Pf DGFA wash-out format, female readout; format: cell-based; conditions: Plasmodium falciparum; 48h preincubation/wash-out
[7] = system: P. falciparum male gametocytes; experiment: Pf DGFA wash-out format, male readout; format: cell-based; conditions: Plasmodium falciparum; 48h preincubation/wash-out

Compound	phenotype of male gametogenesis (IFA) [1]	IC50 [2] [µM]	%Inh HepG2 @10uM (HepG2 human cells) [%]	IC50 [3] [µM]	IC50 [4] [µM]	IC50 (NF54 stage V gametocytes) [µM]	IC50 [5] [µM]	IC50 [6] [µM]	IC50 [7] [µM]	activity in the GC-ATP assay ([4]; profiling)	activity in the mitotracker assay (NF54 stage V gametocytes; profiling)
O=C(CCl)Nc1ccc(Br)cc1 [BPCA, N-(4-bromophenyl)-2-chloroacetamide]	rounded up after induction but most cells did not replicate their DNA and none exflagellated	–	–	–	–	–	–	–	–	–	–
CC(=O)c1c(C)nn(CC(=O)Nc2ccc(Br)cc2)c1C [DDD01027599]	–	> 10	4.72	4.03	1.61	5.55	> 10	3.11	0.97	–	–
O=S(=O)(NCC1(O)CCOc2ccccc21)c1ccccc1F (stereo not drawn) [DDD01028073]	–	> 10	-4.25	0.58	> 10	> 25	0.34	> 12.5	> 12.5	–	–
Cc1ccc(S(=O)(=O)NCC2(O)CCOc3ccccc32)s1 (stereo not drawn) [DDD01028074]	–	> 10	-4.01	0.79	> 10	> 25	0.61	> 12.5	> 12.5	–	–
O=S(=O)(NCC1(O)CCOc2ccccc21)c1ccc(Cl)s1 (stereo not drawn) [DDD01028075]	–	> 10	-6.65	1.32	> 10	> 25	0.24	> 12.5	> 12.5	–	–
O=S(=O)(NCC1(O)CCOc2ccccc21)c1ccccc1Br (stereo not drawn) [DDD01028076]	–	> 10	-0.163	0.48	> 10	> 25	0.53	> 12.5	> 12.5	–	–
COc1cccc(-n2ccc3nc(N4CCCC4)ncc3c2=O)c1 [DDD01034957]	–	> 10	-4.05	> 12.5	> 10	> 25	> 10	–	–	–	–
O=S(=O)(NCC1(O)CCOc2ccccc21)c1cccs1 (stereo not drawn) [DDD01035879]	–	> 10	3.15	0.89	> 10	> 25	0.28	> 12.5	> 12.5	–	–
Cc1cccc(NC(=O)c2cccc(OCc3nnnn3C)c2)n1 [DDD01038630]	–	> 10	18.75	> 12.5	> 10	–	> 10	–	–	–	–
CC(c1ccco1)N(C(=O)CNc1ccc(C#N)cc1)C1CC1 (stereo not drawn) [DDD01062645]	–	5.05	4.38	> 12.5	> 10	> 25	0.44	> 12.5	> 12.5	–	–
Cc1ccc(CN(c2cc(C)nc3nc(C(F)(F)F)nn23)C2CC2)cc1 [DDD01063654]	–	> 10	0.83	> 12.5	> 10	> 10	> 10	–	–	–	–
Cc1cc(C)c(CNCC(O)c2ccc(F)c(F)c2)c(C)c1.Cl (stereo not drawn) [DDD01065539]	–	> 10	-11.40	> 12.5	> 10	–	> 10	–	–	–	–
CC(NCC1CCN(CCO)CC1)c1ccc(OC(F)(F)F)cc1 (stereo not drawn) [DDD01073716]	–	> 10	-2.01	11	> 10	7.07	> 10	1.22	1.08	–	–
CN(Cc1cccc(F)c1)C(=O)CS(=O)(=O)Cc1c(Cl)cccc1Cl [DDD01077188]	–	> 10	5.76	> 12.5	> 10	–	> 10	–	–	–	–
CN1CCC(NCC(O)c2cccc(OCc3ccccc3)c2)CC1 (stereo not drawn) [DDD01079164]	–	> 10	4.18	6.04	6.29	4.97	> 10	1.07	1.3	–	–
CNc1cc(C)nc(NC2CCCN(C3Cc4ccccc4C3)C2)n1 (stereo not drawn) [DDD01243506]	–	> 10	28.56	> 12.5	> 10	–	> 10	–	–	–	–
CC(c1cccs1)N(C)Cc1cnc(-c2ccccn2)nc1 (stereo not drawn) [DDD01246628]	–	> 10	3.52	> 25	2.31	0.2	> 10	–	–	–	–
CCCn1nccc1C(=O)N1CCN(C2CCc3ccccc3C2)CC1 (stereo not drawn) [DDD01251134]	–	> 10	-7.89	> 12.5	> 10	–	> 10	–	–	–	–
Cc1nn(C)c(Oc2ccc(Cl)cc2)c1CN1CCC(CN)C1 (stereo not drawn) [DDD01254274]	–	> 10	-8.55	> 25	6.86	> 12.5	> 10	> 25	2.84	–	–
CCc1ccc(C2c3nc[nH]c3CCN2Cc2nccn2CC)nc1 (stereo not drawn) [DDD01254473]	–	> 10	33.1	> 25	0.53	0.08	> 10	0.71	5.74	submicromolar	submicromolar
CCOc1ccc2ccccc2c1CNCC1CCNCC1.Cl.Cl [DDD01255740]	–	> 10	9.2	4.1	> 10	3.57	> 10	1.65	0.67	–	–
CCn1ncc(Br)c1CN(C)S(=O)(=O)c1ccc(C)cc1 [DDD01259521]	–	> 10	8.37	> 12.5	> 10	> 25	> 10	–	–	–	–
c1cnnc(N2CCCC2CNc2ncnc3sccc23)c1 (stereo not drawn) [DDD01299704]	–	> 10	-7.82	> 12.5	> 10	–	> 10	–	–	–	–
